The values below come from US11091501B2, “Heterocyclic compounds as RSV inhibitors” (Enanta Pharmaceuticals, Inc., priority 2017, dated 2021).

Usually EC50 stands for the midpoint of the concentration-response curve.

The experiment deals with Human RSV-A (“Long” strain). Kind of experiment: RSV in vitro cytoprotection assay (CPE, ATPlite) in HEp-2 cells. It is filed as cell-based. The conditions noted are these: human respiratory syncytial virus, 96 h; HEp-2 cells, 4-day incubation, ATPlite readout; read-out: Human RSV-A (“Long” strain) EC50. In a few lines:
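HEp-2 cells (8,000/well) given 2-fold serial compound dilutions in duplicate, then infected with sucrose-stabilised RSV-A Long stock. After 4 days, cell viability read by ATPlite luminescence, with a parallel uninfected plate for cytotoxicity. EC50 binned A<0.01 μM, B 0.01-0.05 μM, C>0.05 μM.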
(In general: In ATP-based viability assays light output follows the ATP content of the culture.)
With `Cc1cnc(N2CC3(CCOCC3)C2)c(C(=O)Nc2ccc(C(=O)N3CCc4cc(-c5c[nH]nc5C5CC5)sc4-c4ccc(F)cc43)cc2)c1` [Example 170], the EC50 was below 10 nM.
With `CCn1nccc1-c1cc2c(s1)-c1ccc(F)cc1N(C(=O)c1ccc(NC(=O)c3cc(C)cnc3N3CC4(CCOCC4)C3)cc1)CC2` [Example 171] the figure was below 10 nM; with `Cc1cnc(N2CC3(CCOCC3)C2)c(C(=O)Nc2ccc(C(=O)N3CCc4cc(-c5cn(C)nc5N)sc4-c4ccc(F)cc43)cc2)c1` [Example 172], below 10 nM.
The figure for `Cc1cnc(N2CC3(CCOCC3)C2)c(C(=O)Nc2ccc(C(=O)N3CCc4cc(-c5c[nH]c6ncccc56)sc4-c4ccc(F)cc43)cc2)c1` [Example 173] is below 10 nM.
The figure for `Cc1cnc(N2CC3(CCOCC3)C2)c(C(=O)Nc2ccc(C(=O)N3CCc4cc(-c5c[nH]c6ccc(Cl)cc56)sc4-c4ccc(F)cc43)cc2)c1` [Example 174] is above 50 nM.
Take `Cc1cnc(N2CC3(CCOCC3)C2)c(C(=O)Nc2ccc(C(=O)N3CCc4cc(-c5c[nH]c6c(Cl)cccc56)sc4-c4ccc(F)cc43)cc2)c1` [Example 175]: the EC50 is above 50 nM.
The figure for `Cc1cnc(N2CC3(CCOCC3)C2)c(C(=O)Nc2ccc(C(=O)N3CCc4cc(-c5c[nH]c6ccc(C)cc56)sc4-c4ccc(F)cc43)cc2)c1` [Example 176] is above 50 nM.
With `Cc1cnc(N2CC3(CCOCC3)C2)c(C(=O)Nc2ccc(C(=O)N3CCc4cc(-c5c[nH]c6c(C)cccc56)sc4-c4ccc(F)cc43)cc2)c1` [Example 177] the figure was 10 to 50 nM.
The figure for `Cc1cnc(N2CC3(CCOCC3)C2)c(C(=O)Nc2ccc(C(=O)N3CCc4cc(-c5ccc6[nH]ncc6c5)sc4-c4ccc(F)cc43)cc2)c1` [Example 178] is below 10 nM.
On to `Cc1cnc(N2CC3(CCOCC3)C2)c(C(=O)Nc2ccc(C(=O)N3CCc4cc(-c5cnc6[nH]ncc6c5)sc4-c4ccc(F)cc43)cc2)c1` [Example 179], for which the EC50 is below 10 nM.
For `Cc1cnc(N2CC3(CCOCC3)C2)c(C(=O)Nc2ccc(C(=O)N3CCc4cc(-c5c[nH]c6cccnc56)sc4-c4ccc(F)cc43)cc2)c1` [Example 180], the EC50 lay in the range of 10 to 50 nM.
The figure for `Cc1cnc(N2CC3(CCOCC3)C2)c(C(=O)Nc2ccc(C(=O)N3CCc4cc(-c5n[nH]c6ccccc56)sc4-c4ccc(F)cc43)cc2)c1` [Example 181] is below 10 nM; for `Cc1cnc(N2CC3(CCOCC3)C2)c(C(=O)Nc2ccc(C(=O)N3CCc4cc(-c5ccc[nH]c5=O)sc4-c4ccc(F)cc43)cc2)c1` [Example 182] it is below 10 nM.
With `Cc1cnc(N2CC3(CCOCC3)C2)c(C(=O)Nc2ccc(C(=O)N3CCc4cc(-c5cc[nH]c(=O)c5)sc4-c4ccc(F)cc43)cc2)c1` [Example 183] the figure was below 10 nM; with `Cc1cnc(N2CC3(CCOCC3)C2)c(C(=O)Nc2ccc(C(=O)N3CCc4cc(-c5ccc(=O)[nH]c5)sc4-c4ccc(F)cc43)cc2)c1` [Example 184], below 10 nM; with `Cc1cnc(N2CC3(CCOCC3)C2)c(C(=O)Nc2ccc(C(=O)N3CCc4cc(-c5c(F)cncc5F)sc4-c4ccc(F)cc43)cc2)c1` [Example 186], 10 to 50 nM.
The figure for `Cc1cnc(N2CC3(CCOCC3)C2)c(C(=O)Nc2ccc(C(=O)N3CCc4cc(-c5ncc(C)[nH]5)sc4-c4ccc(F)cc43)cc2)c1` [Example 187] is below 10 nM.
For `Cc1cnc(N2CC3(CCOCC3)C2)c(C(=O)Nc2ccc(C(=O)N3CCc4cc(-c5ccnnc5)sc4-c4ccc(F)cc43)cc2)c1` [Example 189], the EC50 is below 10 nM.
With `Cc1cnc(N2CC3(CCOCC3)C2)c(C(=O)Nc2ccc(C(=O)N3CCc4cc(-c5cccnn5)sc4-c4ccc(F)cc43)cc2)c1` [Example 190] the figure was below 10 nM.
The figure for `Cc1cnc(N2CC3(CCOCC3)C2)c(C(=O)Nc2ccc(C(=O)N3CCc4cc(-c5ncccn5)sc4-c4ccc(F)cc43)cc2)c1` [Example 191] is 10 to 50 nM; for `Cc1cnc(N2CC3(CCOCC3)C2)c(C(=O)Nc2ccc(C(=O)N3CCc4cc(-c5cnsc5)sc4-c4ccc(F)cc43)cc2)c1` [Example 192] it is below 10 nM; for `Cc1cnc(N2CC3(CCOCC3)C2)c(C(=O)Nc2ccc(C(=O)N3CCc4cc(-c5nnc(C)o5)sc4-c4cc(F)c(F)cc43)cc2)c1` [Example 193] it is below 10 nM.
With `Cc1cnc(N2CC3(CCOCC3)C2)c(C(=O)Nc2ccc(C(=O)N3CCc4cc(-c5nnnn5C5CC5)sc4-c4ccc(F)cc43)cc2)c1` [Example 194] the figure was 10 to 50 nM.
In the case of `Cc1cnc(N2CC3(CCOCC3)C2)c(C(=O)Nc2ccc(C(=O)N3CCc4cc(-c5nnnn5C)sc4-c4ccc(F)cc43)cc2)c1` [Example 195], the EC50 lay in the range of 10 to 50 nM.
With `Cc1cnc(N2CC3(CCOCC3)C2)c(C(=O)Nc2ccc(C(=O)N3CCc4cc(-c5nnn[nH]5)sc4-c4ccc(F)cc43)cc2)c1` [Example 196] the figure was above 50 nM; with `Cc1cnc(N2CC3(CCOCC3)C2)c(C(=O)Nc2ccc(C(=O)N3CCc4c(sc(C(=O)Nc5c(F)cccc5Cl)c4F)-c4ccccc43)cc2)c1` [Example 197], below 10 nM; with `Cc1cnc(N2CC3(CCOCC3)C2)c(C(=O)Nc2ccc(C(=O)N3CCc4c(sc(C(=O)Nc5c(F)cc(F)cc5Cl)c4F)-c4ccccc43)cc2)c1` [Example 199], below 10 nM.
With `Cc1cnc(N2CC3(CCOCC3)C2)c(C(=O)Nc2ccc(C(=O)N3CCc4c(sc(C(=O)Nc5c(F)cccc5C(F)(F)F)c4F)-c4ccccc43)cc2)c1` [Example 200] the figure was below 10 nM; with `Cc1cnc(N2CC3(CCOCC3)C2)c(C(=O)Nc2ccc(C(=O)N3CCc4c(sc(-c5nc6ccccc6[nH]5)c4F)-c4ccccc43)cc2)c1` [Example 201], below 10 nM.
Regarding `Cc1cnc(N2CC3(CCOCC3)C2)c(C(=O)Nc2ccc(C(=O)N3CCc4c(sc(-c5nc6cccc(Cl)c6[nH]5)c4F)-c4ccccc43)cc2)c1` [Example 202], the EC50 fell in the range of 10 to 50 nM.
With `Cc1cnc(N2CC3(CCOCC3)C2)c(C(=O)Nc2ccc(C(=O)N3CCc4c(sc(-c5nc6cccc(C(F)(F)F)c6[nH]5)c4F)-c4ccccc43)cc2)c1` [Example 203] the figure was 10 to 50 nM; with `Cc1cnc(N2CC3(CCOCC3)C2)c(C(=O)Nc2ccc(C(=O)N3CCc4c(sc(C(=O)Nc5c(C)cccc5C#N)c4F)-c4ccccc43)cc2)c1` [Example 204], below 10 nM.
The figure for `Cc1cnc(N2CC3(CCOCC3)C2)c(C(=O)Nc2ccc(C(=O)N3CCc4c(sc(C(=O)Nc5ccccc5F)c4F)-c4ccccc43)cc2)c1` [Example 205] is below 10 nM; for `Cc1cnc(N2CC3(CCOCC3)C2)c(C(=O)Nc2ccc(C(=O)N3CCc4c(sc(-c5nc6cccc(F)c6[nH]5)c4F)-c4ccccc43)cc2)c1` [Example 206] it is below 10 nM.
Regarding `Cc1cnc(N2CC3(CCOCC3)C2)c(C(=O)Nc2ccc(C(=O)N3CCc4c(sc(-c5nc6ccc(F)cc6[nH]5)c4F)-c4ccccc43)cc2)c1` [Example 207], the EC50 was below 10 nM.
With `Cc1cnc(N2CC3(CCOCC3)C2)c(C(=O)Nc2ccc(C(=O)N3CCc4c(sc(C(=O)Nc5c(C)cccc5C)c4F)-c4ccccc43)cc2)c1` [Example 208] the figure was below 10 nM; with `Cc1cnc(N2CC3(CCOCC3)C2)c(C(=O)Nc2ccc(C(=O)N3CCc4c(sc(C(=O)Nc5ccc(F)cc5F)c4F)-c4ccccc43)cc2)c1` [Example 209], below 10 nM.
